Results taken from ChEMBL document CHEMBL3217743, “Reduction of acyl glucuronidation in a series of acidic 11-hydroxysteroid dehydrogenase type 1 (11-HSD1) inhibitors: the discovery of AZD6925” (Medchemcomm, 2012).
pIC50: −log10 of the molar value. Calls of active or inactive are those of the source. The rule behind the calls is not given here.

Experiments:
[1] = Drug metabolism in human hepatocytes assessed as compound remaining by LC-MS/MS analysis; type: ADME, cell-based, Hepatocyte
CYP2C19 = CYP2C19 (Homo sapiens, UniProt P33261); test: Inhibition of CYP2C19 (unknown origin) at 10 uM relative to control; type: ADME
[2] = Fraction unbound in human plasma by equilibrium dialysis technique; type: ADME, cell-free
[3] = target: T1, 11-beta-hydroxysteroid dehydrogenase type 2 (Homo sapiens, UniProt P80365); test: Inhibition of recombinant 11beta-HSD2 (unknown origin) assessed as conversion of cortisol to cortisone after 40 mins by fluorescence assay
T1 sequence (P80365 whole entry): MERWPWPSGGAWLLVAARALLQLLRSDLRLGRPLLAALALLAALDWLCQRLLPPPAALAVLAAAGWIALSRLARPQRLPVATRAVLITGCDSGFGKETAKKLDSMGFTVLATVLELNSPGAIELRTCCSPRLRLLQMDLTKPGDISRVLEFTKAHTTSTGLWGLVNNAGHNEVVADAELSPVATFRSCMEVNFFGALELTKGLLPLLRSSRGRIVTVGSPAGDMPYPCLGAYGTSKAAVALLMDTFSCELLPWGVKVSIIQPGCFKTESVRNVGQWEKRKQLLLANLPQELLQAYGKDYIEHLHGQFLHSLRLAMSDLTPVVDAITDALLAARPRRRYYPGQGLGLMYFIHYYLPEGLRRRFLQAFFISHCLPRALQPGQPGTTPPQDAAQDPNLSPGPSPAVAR

[4] = Fraction unbound in dog plasma by equilibrium dialysis technique; type: ADME, cell-free, Canis lupus familiaris
[5] = Fraction unbound in rat plasma by equilibrium dialysis technique; type: ADME, cell-free
[6] = Aqueous solubility of crystalline form of compound in phosphate buffer at pH 7.4 after 24 hrs by LC-UV analysis; type: physicochemical
[7] = Plasma clearance in mouse at 1 to 3 mg/kg; type: ADME, organism-based; design: dose 1-3 mg/kg
[8] = target: T2, 17-beta-hydroxysteroid dehydrogenase type 1 (Homo sapiens) (UniProt P14061); test: Inhibition of recombinant 17beta-HSD1 (unknown origin) assessed as conversion of estrone to estradiol at 10 uM after 20 mins by scintillation counting analysis relative to control
T2 sequence (whole entry): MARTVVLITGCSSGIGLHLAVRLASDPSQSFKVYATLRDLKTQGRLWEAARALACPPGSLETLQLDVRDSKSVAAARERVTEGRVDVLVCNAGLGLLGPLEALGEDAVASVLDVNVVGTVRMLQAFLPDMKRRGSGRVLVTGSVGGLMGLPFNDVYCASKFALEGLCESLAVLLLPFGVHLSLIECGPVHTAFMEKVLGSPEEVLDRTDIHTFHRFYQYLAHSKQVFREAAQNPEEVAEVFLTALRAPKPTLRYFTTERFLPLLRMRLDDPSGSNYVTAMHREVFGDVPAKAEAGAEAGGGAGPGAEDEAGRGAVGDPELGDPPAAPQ

Phosphodiesterase 4 = Phosphodiesterase 4 (Homo sapiens, UniProt P27815+Q08499+Q07343+Q08493); test: Inhibition of PDE4 (unknown origin); type: protein assay
CYP1A2 = target: T3, CYP1A2 (Homo sapiens, UniProt P05177); test: Inhibition of CYP1A2 (unknown origin) at 10 uM relative to control; type: ADME
T3 sequence (P05177 whole entry): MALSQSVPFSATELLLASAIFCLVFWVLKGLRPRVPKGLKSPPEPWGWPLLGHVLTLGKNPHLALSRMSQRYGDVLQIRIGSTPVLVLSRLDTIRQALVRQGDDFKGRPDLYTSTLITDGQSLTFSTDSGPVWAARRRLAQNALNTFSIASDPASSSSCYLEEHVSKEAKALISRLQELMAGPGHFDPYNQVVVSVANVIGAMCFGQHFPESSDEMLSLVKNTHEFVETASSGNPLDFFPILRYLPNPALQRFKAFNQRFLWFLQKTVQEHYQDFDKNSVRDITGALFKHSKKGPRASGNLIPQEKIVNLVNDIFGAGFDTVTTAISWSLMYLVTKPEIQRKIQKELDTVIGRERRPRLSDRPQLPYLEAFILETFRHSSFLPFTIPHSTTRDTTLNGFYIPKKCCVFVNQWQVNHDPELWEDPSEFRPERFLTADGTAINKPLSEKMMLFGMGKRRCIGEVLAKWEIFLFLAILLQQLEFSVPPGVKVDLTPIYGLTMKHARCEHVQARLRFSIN

CYP2C9 = CYP2C9 (Homo sapiens, UniProt P11712); test: Inhibition of CYP2C9 (unknown origin) at 10 uM relative to control; type: ADME
[9] = target: Voltage-gated inwardly rectifying potassium channel KCNH2 (Homo sapiens, UniProt Q12809); test: Inhibition of human ERG
[10] = Plasma clearance in rat at 1 to 3 mg/kg; type: ADME, organism-based; design: dose 1-3 mg/kg
Mus musculus = test: Ex vivo inhibition of 11beta-HSD1-mediated conversion of [3H]-cortisone to [3H]-cortisol in C57Bl6J mouse adipose tissue at 30 mg/kg, po after 1 hr by scintillation counting analysis relative to control; type: functional
[11] = target: T4, Mineralocorticoid receptor (Homo sapiens) (UniProt P08235); test: Activity at mineralocorticoid receptor (unknown origin)
T4 sequence (whole entry): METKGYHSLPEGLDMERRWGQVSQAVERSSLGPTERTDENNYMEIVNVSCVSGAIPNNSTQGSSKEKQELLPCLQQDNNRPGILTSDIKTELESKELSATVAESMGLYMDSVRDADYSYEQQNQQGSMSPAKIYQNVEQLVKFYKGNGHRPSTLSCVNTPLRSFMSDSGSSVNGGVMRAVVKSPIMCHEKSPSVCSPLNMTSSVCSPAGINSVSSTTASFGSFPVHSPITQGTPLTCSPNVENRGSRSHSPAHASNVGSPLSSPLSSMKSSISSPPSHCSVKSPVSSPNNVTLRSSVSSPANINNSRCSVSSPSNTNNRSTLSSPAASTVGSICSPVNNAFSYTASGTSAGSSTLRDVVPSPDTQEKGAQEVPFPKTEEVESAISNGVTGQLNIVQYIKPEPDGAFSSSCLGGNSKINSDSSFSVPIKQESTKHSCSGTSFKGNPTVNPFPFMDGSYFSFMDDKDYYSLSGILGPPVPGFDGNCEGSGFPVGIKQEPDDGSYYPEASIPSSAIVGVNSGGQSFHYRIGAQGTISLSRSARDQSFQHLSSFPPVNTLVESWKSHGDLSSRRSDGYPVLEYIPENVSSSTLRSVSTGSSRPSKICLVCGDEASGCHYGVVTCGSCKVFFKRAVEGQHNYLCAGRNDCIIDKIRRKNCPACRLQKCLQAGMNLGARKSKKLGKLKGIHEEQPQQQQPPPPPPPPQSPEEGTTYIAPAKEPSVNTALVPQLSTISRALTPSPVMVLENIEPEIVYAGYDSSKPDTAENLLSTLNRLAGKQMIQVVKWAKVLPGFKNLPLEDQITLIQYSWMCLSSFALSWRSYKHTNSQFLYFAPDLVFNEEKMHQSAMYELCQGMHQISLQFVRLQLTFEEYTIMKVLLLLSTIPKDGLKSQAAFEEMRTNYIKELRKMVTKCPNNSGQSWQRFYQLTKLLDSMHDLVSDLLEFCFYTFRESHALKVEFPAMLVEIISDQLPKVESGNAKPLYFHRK

Chain of CYP2C19 (P33261 whole entry): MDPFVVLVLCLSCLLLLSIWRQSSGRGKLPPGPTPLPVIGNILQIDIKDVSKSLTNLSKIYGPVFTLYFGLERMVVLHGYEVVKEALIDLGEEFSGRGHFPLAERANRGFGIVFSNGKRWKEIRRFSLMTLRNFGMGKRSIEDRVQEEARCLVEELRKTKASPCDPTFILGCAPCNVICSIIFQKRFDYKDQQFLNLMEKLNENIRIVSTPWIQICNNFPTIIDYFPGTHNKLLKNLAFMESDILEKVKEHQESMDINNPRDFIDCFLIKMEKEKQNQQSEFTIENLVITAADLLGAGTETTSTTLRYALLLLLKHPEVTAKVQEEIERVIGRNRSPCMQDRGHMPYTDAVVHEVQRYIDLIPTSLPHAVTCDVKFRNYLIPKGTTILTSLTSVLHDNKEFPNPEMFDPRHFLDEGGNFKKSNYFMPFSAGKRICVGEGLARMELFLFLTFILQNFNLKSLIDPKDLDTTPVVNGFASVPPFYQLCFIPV
Chain of CYP2C9 (P11712 whole entry): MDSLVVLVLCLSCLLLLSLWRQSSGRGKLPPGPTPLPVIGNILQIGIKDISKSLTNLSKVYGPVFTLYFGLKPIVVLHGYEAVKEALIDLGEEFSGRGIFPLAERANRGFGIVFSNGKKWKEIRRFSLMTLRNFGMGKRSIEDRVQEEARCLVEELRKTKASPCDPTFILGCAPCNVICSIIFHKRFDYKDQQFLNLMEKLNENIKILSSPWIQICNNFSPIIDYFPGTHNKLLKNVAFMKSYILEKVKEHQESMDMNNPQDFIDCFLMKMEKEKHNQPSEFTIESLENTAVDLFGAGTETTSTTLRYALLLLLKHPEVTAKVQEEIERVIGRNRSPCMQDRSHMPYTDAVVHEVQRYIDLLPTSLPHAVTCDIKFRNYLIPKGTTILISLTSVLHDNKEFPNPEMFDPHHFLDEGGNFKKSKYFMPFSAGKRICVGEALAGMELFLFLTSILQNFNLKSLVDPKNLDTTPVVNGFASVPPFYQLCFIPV
Chain of Voltage-gated inwardly rectifying potassium channel KCNH2 (Q12809 whole entry): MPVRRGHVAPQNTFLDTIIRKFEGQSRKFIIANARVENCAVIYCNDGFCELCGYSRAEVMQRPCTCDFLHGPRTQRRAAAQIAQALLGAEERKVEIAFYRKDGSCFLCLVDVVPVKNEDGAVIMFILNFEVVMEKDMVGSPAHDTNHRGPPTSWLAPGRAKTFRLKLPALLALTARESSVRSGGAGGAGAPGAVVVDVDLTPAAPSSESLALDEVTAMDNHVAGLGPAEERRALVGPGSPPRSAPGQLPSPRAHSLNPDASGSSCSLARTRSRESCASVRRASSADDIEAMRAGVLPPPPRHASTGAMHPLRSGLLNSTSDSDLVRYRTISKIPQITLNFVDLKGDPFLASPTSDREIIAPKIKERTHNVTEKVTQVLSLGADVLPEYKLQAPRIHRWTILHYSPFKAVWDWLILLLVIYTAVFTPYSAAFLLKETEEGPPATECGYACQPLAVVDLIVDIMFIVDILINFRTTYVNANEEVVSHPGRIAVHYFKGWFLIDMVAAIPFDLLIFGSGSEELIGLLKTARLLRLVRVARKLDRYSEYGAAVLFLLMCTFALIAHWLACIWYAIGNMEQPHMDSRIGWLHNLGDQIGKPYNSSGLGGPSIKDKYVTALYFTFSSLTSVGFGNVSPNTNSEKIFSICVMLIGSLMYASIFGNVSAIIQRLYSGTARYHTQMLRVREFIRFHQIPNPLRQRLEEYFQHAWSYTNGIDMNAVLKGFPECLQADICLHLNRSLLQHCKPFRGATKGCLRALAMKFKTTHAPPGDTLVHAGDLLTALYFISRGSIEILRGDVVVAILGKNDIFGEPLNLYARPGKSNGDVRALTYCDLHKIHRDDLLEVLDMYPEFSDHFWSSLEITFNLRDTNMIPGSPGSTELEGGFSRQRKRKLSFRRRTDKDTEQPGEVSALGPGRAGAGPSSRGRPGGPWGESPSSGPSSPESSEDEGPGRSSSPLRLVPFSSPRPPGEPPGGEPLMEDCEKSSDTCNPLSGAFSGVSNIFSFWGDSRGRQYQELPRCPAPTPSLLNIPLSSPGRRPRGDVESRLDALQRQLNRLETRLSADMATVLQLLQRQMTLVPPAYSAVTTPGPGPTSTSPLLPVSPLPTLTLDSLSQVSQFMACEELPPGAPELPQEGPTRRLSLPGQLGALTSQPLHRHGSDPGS

CSc1nc(N2C[C@@H]3[C@H](C2)[C@H]3C(=O)O)ccc1C(=O)NC12CC3CC(CC(C3)C1)C2
Stability [1]: 94%
inhibition at 10 µM (CYP2C19): < 25%
fraction unbound [2]: 0.011
pIC50 [3]: < 4.52
fraction unbound [4]: 0.015
fraction unbound [5]: 0.017
solubility thermodynamic at 24 h [6]: > 3000 µM
clearance [7]: 9 mL/min/kg
inhibition [8]: 20%
IC50 (Phosphodiesterase 4): 30 µM
inhibition at 10 µM (CYP1A2): < 25%
inhibition at 10 µM (CYP2C9): < 25%
pIC50 [9]: < 4.52
clearance [10]: 6 mL/min/kg
inhibition in vivo at 30 mg/kg (Mus musculus): 50%
Activity [11]: inactive
